One block for each compound: values may come before it. The source made the active and inactive calls. The rule behind the calls is not given here.
Key:
Cytochrome P450 3A4 [1] = target: T1, Cytochrome P450 3A4 (Homo sapiens, UniProt P08684); experiment: Reversible inhibition of CYP3A4 in human liver microsomes using midazolam as substrate in presence of NADPH by LC-MS/MS analysis; type: ADME
[2] = Apparent permeability from basolateral to apical side in MDCK cells at 10 uM by LC/MS/MS analysis; type: ADME, cell-based, Canis lupus familiaris; conditions: dog
[3] = Cmax in Beagle dog at 3 mg/kg, po; type: ADME, organism-based, Canis lupus familiaris; parameters: dose 3 mg/kg, route oral; conditions: in vivo
[4] = Time at which plasma concentration stays above plasma protein binding corrected human HT1080 cells IC50 in nude NCR mouse at 25 mg/kg, po bid administered via gavage; type: ADME, organism-based, HT-1080; conditions: in vivo
Mus musculus [5] = experiment: Toxicity in nude NCR mouse xenografted with human HT1080 cells assessed as change in body weight at 25 to 50 mg/kg administered via oral gavage twice per day for 5 consecutive days measured up to 20 days; type: organism-based, HT-1080; conditions: in vivo, 480 h
[6] = AUC in Beagle dog at 3 mg/kg, po; type: ADME, organism-based, Canis lupus familiaris; conditions: in vivo
Cytochrome P450 2C9 [7] = target: T2, Cytochrome P450 2C9 (Homo sapiens, UniProt P11712); experiment: Time dependent inhibition of CYP2C9 in human liver microsomes assessed as substrate AUC shift; type: ADME; parameters: scale not given: the % may be the effect or the level left
Cytochrome P450 1A2 [8] = target: T3, Cytochrome P450 1A2 (Homo sapiens, UniProt P05177); experiment: Reversible inhibition of CYP1A2 in human liver microsomes using […] as substrate in presence of NADPH by LC-MS/MS analysis; type: ADME
T3 sequence (P05177 whole entry): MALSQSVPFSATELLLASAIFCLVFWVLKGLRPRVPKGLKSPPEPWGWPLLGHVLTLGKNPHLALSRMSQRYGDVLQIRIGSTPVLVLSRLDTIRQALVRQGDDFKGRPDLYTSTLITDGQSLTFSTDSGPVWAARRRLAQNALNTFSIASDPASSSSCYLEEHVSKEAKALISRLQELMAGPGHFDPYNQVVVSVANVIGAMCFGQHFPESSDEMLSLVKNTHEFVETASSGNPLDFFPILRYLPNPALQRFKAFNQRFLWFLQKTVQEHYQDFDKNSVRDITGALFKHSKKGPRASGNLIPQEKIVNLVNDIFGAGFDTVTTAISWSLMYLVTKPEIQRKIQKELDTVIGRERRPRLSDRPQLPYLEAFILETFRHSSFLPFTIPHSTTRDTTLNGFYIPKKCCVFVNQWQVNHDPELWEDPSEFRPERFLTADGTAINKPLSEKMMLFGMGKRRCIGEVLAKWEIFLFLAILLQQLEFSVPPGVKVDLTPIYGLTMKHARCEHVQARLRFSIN

[9] = Volume of distribution at steady state in Sprague-Dawley rat at 1 mg/kg, iv; type: ADME, organism-based; conditions: in vivo, read-out: Vdss
Cytochrome P450 2C19 [10] = target: T4, Cytochrome P450 2C19 (Homo sapiens, UniProt P33261); experiment: Time dependent inhibition of CYP2C19 in human liver microsomes assessed as substrate AUC shift; type: ADME; parameters: scale not given: the % may be the effect or the level left
Cytochrome P450 3A4 [11] = target: T1, Cytochrome P450 3A4; experiment: Time dependent inhibition of CYP3A4 in human liver microsomes assessed as substrate AUC shift using midazolam as substrate; type: ADME; parameters: scale not given: the % may be the effect or the level left
Cytochrome P450 3A4 [12] = target: T1, Cytochrome P450 3A4; experiment: Reversible inhibition of CYP3A4 in human liver microsomes using testosterone as substrate in presence of NADPH by LC-MS/MS analysis; type: ADME
[13] = Thermodynamic solubility of the compound in PBS at pH 7.4 after 24 hrs by liquid chromatography-chemiluminescence nitrogen detection assay; type: physicochemical; conditions: read-out: Therm_solubility
Cytochrome P450 2D6 [14] = target: T5, Cytochrome P450 2D6 (Homo sapiens, UniProt P10635); experiment: Time dependent inhibition of CYP2D6 in human liver microsomes assessed as substrate AUC shift; type: ADME; parameters: scale not given: the % may be the effect or the level left
[15] = Protein binding in mouse plasma at 5 uM after 4 hrs by rapid equilibrium dialysis based LC-MS/MS analysis; type: ADME, cell-free; conditions: read-out: PPB (converted)
[16] = Apparent permeability from apical to basolateral side in MDCK cells at 10 uM by LC/MS/MS analysis; type: ADME, cell-based, Canis lupus familiaris; conditions: dog
[17] = Protein binding in human plasma at 5 uM after 4 hrs by rapid equilibrium dialysis based LC-MS/MS analysis; type: ADME, cell-free; conditions: read-out: PPB (converted)
Cytochrome P450 2D6 [18] = target: T5, Cytochrome P450 2D6; experiment: Reversible inhibition of CYP2D6 in human liver microsomes using […] as substrate in presence of NADPH by LC-MS/MS analysis; type: ADME
Cytochrome P450 2C19 [19] = target: T4, Cytochrome P450 2C19; experiment: Reversible inhibition of CYP2C19 in human liver microsomes using […] as substrate in presence of NADPH by LC-MS/MS analysis; type: ADME
[20] = Oral bioavailability in Beagle dog at 3 mg/kg; type: ADME, organism-based, Canis lupus familiaris; conditions: in vivo
[21] = Kinetic solubility of the compound in PBS at 200 uM at pH 7.4 after 24 hrs by liquid chromatography-chemiluminescence nitrogen detection assay; type: physicochemical; conditions: read-out: Kinetic_solubility
[22] = Cmax in Sprague-Dawley rat at 5 mg/kg, po; type: ADME, organism-based; parameters: dose 5 mg/kg, route oral; conditions: in vivo
[23] = Protein binding in cynomolgus monkey plasma at 5 uM after 4 hrs by rapid equilibrium dialysis based LC-MS/MS analysis; type: ADME, cell-free, Macaca fascicularis; conditions: read-out: PPB (converted)
[24] = Octanol-aqueous phosphate buffer distribution coefficient, log D of the compound at pH 7.4 after 1 hr by LC/MS/MS analysis; type: physicochemical
[25] = Clearance in Sprague-Dawley rat at 1 mg/kg, iv; type: ADME, organism-based; conditions: in vivo
[26] = Oral bioavailability in Sprague-Dawley rat at 5 mg/kg; type: ADME, organism-based; conditions: in vivo
[27] = AUC in Sprague-Dawley rat at 5 mg/kg, po; type: ADME, organism-based; conditions: in vivo
[28] = Protein binding in dog plasma at 5 uM after 4 hrs by rapid equilibrium dialysis based LC-MS/MS analysis; type: ADME, cell-free, Canis lupus familiaris; conditions: read-out: PPB (converted)
[29] = Volume of distribution at steady state in Beagle dog at 0.5 mg/kg, iv; type: ADME, organism-based, Canis lupus familiaris; conditions: in vivo, read-out: Vdss
[30] = Protein binding in rat plasma at 5 uM after 4 hrs by rapid equilibrium dialysis based LC-MS/MS analysis; type: ADME, cell-free; conditions: read-out: PPB (converted)
[31] = Clearance in Beagle dog at 0.5 mg/kg, iv; type: ADME, organism-based, Canis lupus familiaris; conditions: in vivo
Cytochrome P450 1A2 [32] = target: T3, Cytochrome P450 1A2; experiment: Time dependent inhibition of CYP1A2 in human liver microsomes assessed as substrate AUC shift; type: ADME; parameters: scale not given: the % may be the effect or the level left
HT-1080 = experiment: Antitumor activity against human HT1080 cells xenografted in nude NCR mouse assessed as tumor growth inhibition at 25 to 50 mg/kg administered via oral gavage twice per day for 5 consecutive days measured up to 20 days; type: functional, organism-based
Cytochrome P450 2C9 [33] = target: T2, Cytochrome P450 2C9
[34] = Half life in Sprague-Dawley rat at 1 mg/kg, iv; type: ADME, organism-based; conditions: in vivo
[35] = Half life in Beagle dog at 0.5 mg/kg, iv; type: ADME, organism-based, Canis lupus familiaris; conditions: in vivo
Cytochrome P450 3A4 [36] = target: T1, Cytochrome P450 3A4; experiment: Time dependent inhibition of CYP3A4 in human liver microsomes assessed as substrate AUC shift using testosterone as substrate; type: ADME; parameters: scale not given: the % may be the effect or the level left
Mus musculus [37] = experiment: Increase in body weight in human HT1080 tumor bearing nude NCR mouse cachexia model at 25 to 50 mg/kg administered via oral gavage twice per day for 5 consecutive days measured up to 20 days; type: functional, organism-based
Cytochrome P450 2C9 [38] = target: T2, Cytochrome P450 2C9; remark: listed apart in the source
Cytochrome P450 2D6 [39] = target: T5, Cytochrome P450 2D6
Cytochrome P450 3A4 [40] = target: T1, Cytochrome P450 3A4; experiment: Inhibition of CYP3A4 in human liver microsomes using testosterone as substrate in presence of NADPH by LC-MS/MS analysis; type: ADME
Cytochrome P450 3A4 [41] = target: T1, Cytochrome P450 3A4
Cytochrome P450 1A2 [42] = target: T3, Cytochrome P450 1A2
Cytochrome P450 2C19 [43] = target: T4, Cytochrome P450 2C19

T5 sequence (P10635 whole entry): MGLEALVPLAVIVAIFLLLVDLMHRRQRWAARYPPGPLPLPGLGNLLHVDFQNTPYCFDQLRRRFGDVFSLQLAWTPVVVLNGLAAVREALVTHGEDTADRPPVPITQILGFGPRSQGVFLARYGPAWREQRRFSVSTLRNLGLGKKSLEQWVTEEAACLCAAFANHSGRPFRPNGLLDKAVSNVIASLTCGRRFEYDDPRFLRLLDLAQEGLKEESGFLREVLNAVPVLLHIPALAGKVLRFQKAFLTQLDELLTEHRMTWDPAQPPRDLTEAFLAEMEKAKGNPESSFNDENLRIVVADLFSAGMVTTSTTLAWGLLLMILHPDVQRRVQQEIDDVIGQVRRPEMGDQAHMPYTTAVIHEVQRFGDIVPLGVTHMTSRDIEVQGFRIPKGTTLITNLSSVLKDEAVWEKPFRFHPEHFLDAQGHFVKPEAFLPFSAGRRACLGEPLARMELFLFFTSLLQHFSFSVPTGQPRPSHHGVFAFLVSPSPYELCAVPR
T1 sequence (P08684 whole entry): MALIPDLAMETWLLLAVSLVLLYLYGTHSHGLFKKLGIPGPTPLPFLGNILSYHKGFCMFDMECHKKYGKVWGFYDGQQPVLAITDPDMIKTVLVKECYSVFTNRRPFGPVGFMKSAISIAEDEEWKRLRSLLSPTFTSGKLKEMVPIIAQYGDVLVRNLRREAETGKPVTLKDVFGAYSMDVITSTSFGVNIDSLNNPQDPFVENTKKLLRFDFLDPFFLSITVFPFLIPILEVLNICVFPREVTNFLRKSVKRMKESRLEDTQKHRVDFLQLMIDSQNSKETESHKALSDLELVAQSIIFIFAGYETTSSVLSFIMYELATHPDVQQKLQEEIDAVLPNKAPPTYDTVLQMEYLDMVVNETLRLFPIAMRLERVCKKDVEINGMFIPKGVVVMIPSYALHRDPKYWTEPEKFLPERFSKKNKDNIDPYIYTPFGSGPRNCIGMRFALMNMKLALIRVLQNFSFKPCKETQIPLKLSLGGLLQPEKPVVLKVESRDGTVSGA
T2 sequence (P11712 whole entry): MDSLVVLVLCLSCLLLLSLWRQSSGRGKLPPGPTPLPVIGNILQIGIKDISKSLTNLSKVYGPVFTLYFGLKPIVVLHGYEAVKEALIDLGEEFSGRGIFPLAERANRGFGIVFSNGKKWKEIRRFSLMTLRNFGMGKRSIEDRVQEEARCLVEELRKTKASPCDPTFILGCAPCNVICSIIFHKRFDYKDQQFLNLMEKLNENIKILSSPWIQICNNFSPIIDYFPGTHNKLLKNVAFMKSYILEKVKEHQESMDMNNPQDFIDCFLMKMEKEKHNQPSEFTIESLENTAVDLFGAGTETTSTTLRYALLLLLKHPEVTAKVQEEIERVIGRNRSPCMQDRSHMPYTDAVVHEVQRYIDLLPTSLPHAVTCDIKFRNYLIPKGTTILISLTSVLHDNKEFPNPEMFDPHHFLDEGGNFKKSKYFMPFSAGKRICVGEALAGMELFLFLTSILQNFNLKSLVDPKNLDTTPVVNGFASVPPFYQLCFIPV
T4 sequence (P33261 whole entry): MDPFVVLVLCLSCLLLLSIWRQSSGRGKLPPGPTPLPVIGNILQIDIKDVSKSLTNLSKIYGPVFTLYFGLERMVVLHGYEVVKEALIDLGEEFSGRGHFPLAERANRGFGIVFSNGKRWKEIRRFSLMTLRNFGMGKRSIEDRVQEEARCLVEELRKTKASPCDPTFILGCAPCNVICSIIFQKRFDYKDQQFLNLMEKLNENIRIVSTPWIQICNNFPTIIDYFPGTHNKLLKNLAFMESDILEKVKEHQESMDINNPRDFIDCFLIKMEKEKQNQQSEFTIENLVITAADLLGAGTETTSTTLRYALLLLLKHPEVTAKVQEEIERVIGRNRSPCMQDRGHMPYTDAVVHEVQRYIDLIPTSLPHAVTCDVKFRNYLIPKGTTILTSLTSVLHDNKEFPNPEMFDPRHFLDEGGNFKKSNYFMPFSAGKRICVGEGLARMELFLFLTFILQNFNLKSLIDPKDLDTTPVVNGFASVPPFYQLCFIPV

IC50 (Cytochrome P450 3A4 [1]): > 10 µM
Papp B→A at 10 µM [2]: 12 ×10⁻⁶ cm/s
Cmax [3]: 4800 nM
Time [4]: 20 h
AUC [6]: 10.5 µM·h
Activity (Cytochrome P450 2C9 [7]): < 15%
IC50 (Cytochrome P450 1A2 [8]): > 10 µM
Vd [9]: 9 L/kg
Activity (Cytochrome P450 2C19 [10]): < 15%
Activity (Cytochrome P450 3A4 [11]): < 15%
IC50 (Cytochrome P450 3A4 [12]): > 10 µM
solubility thermodynamic at 24 h [13]: > 6 mM
Activity (Cytochrome P450 2D6 [14]): < 15%
fraction unbound at 4 h, 5 µM [15]: 0.47
Papp A→B at 10 µM [16]: 8.8 ×10⁻⁶ cm/s
fraction unbound at 4 h, 5 µM [17]: 0.44
IC50 (Cytochrome P450 2D6 [18]): > 10 µM
IC50 (Cytochrome P450 2C19 [19]): > 10 µM
bioavailability [20]: 86%
solubility kinetic at 24 h, 200 µM [21]: > 0.1 mM
Cmax [22]: 640 nM
fraction unbound at 4 h, 5 µM [23]: 0.46
logD at 1 h [24]: 1.2
clearance [25]: 110 mL/min/kg
bioavailability [26]: 29%
AUC [27]: 0.55 µM·h
fraction unbound at 4 h, 5 µM [28]: 0.34
Vd [29]: 0.8 L/kg
fraction unbound at 4 h, 5 µM [30]: 0.44
clearance [31]: 10.8 mL/min/kg
Activity (Cytochrome P450 1A2 [32]): < 15%
IC50 (Cytochrome P450 2C9 [33]): > 10 µM
half-life [34]: 1.4 h
half-life [35]: 1.2 h
Activity (Cytochrome P450 3A4 [36]): < 15%
Compound: CC1(OC(=O)N2CCC3(CC2)C[C@@H]3CNC(=O)N2Cc3ccncc3C2)COC1
Activity (Mus musculus [5]): Non-Toxic
TGI (HT-1080): Active
Activity (Mus musculus [37]): Active

IC50 (Cytochrome P450 2C9 [38]): 4.8 µM
IC50 (Cytochrome P450 2D6 [39]): > 10 µM
IC50 (Cytochrome P450 3A4 [40]): 7.9 µM
IC50 (Cytochrome P450 3A4 [41]): 9 µM
IC50 (Cytochrome P450 1A2 [42]): > 10 µM
IC50 (Cytochrome P450 2C9 [33]): 0.07 µM
IC50 (Cytochrome P450 2C19 [43]): 6.5 µM
Compound: O=C(NCc1ccc(S(=O)(=O)c2cccc(C(F)(F)F)c2)cc1)c1cnc2[nH]ncc2c1

Reference: ChEMBL document CHEMBL3865840, “Minimizing CYP2C9 Inhibition of Exposed-Pyridine NAMPT (Nicotinamide Phosphoribosyltransferase) Inhibitors” (J Med Chem, 2016)
